Measurements from patent publication EP0123700A1, “Substituted picolinic acids, processes for their preparation, their use, and pharmaceutical preparations containing them” (Byk Gulden Lomberg Chemische Fabrik GmbH, priority 1983, dated 1984).

Legend:
[1] = Oral toxicity (LD50) in mice, 14 days observation; type: in vivo; details: mouse, in vivo, N=5/dose
Description: (§1) Die Toxizitätsuntersuchungen werden an weiblichen NMRI-Mäusen (Körpergewicht 22 - 26 g) durchgeführt. Die Tiere (5 Tiere pro Dosis) erhalten Futter und Wasser ad libitum. Verschiedene Dosen der Substanzen werden oral verabreicht. Die Beobachtungsdauer beträgt 14 Tage. Die LD50, d.h. die Dosis bei der 50% der Tiere sterben, wird aus der Dosiswirkungskurve graphisch ermittelt.

[2] = test system: genetisch hypertonen Ratten; assay: Antihypertensive effect: systolic blood pressure (tail cuff) in conscious genetically hypertensive rats, oral dosing once daily on four consecutive days; type: in vivo, Ratten (Stamm SHR/N/Ibm/Bm); details: for Th.W. (Therapeutische Wirksamkeit): mean of quotient over the doses of Table I
Description: Zur Bestimmung der äntihypertensiven Wirkung werden die unten aufgeführten Verbindungen in den angegebenen Dosen an vier aufeinander folgenden Tagen an je 6 Ratten (Stamm SHR/N/Ibm/Bm, ♂, 250-350 g) mit genetisch bedingtem Hochdruck (RR > 180 mmHg) täglich einmal mittels Schlundsonde verabfolgt. Die Messung des Blutdrucks erfolgt jeweils 2, 6 und gegebenenfalls 24 Stunden nach Substanzgabe.
Die Blutdruckmessung wird in einer Wärmekammer bei 36°C vorgenommen, um eine bessere Durchblutung der Schwanzarterie zu erreichen. Hierzu werden die Tiere in perforierte Lochblechkäfige verbracht und 20 - 40 Min. nach Beginn der Aufwärmung gemessen. Zur Messung des systolischen arteriellen Drucks wird eine ringförmige Manschette mit aufblasbarer Gummimembran zur Unterbindung der Durchblutung und ein ringförmiger Piezökristallaufnehmer zur Erfassung der Pulswellen auf den Schwanz aufgeschoben. Nach erfolgter Unterbindung des Blutstroms in der Schwanzarterie wird der Manschettendruck kontinuierlich reduziert. […] Pulssignale und Druckverlauf werden zur Auswertung graphisch aufgezeichnet.
Zur Gewöhnung an den Meßvorgang werden die Tiere vor Substanzprüfung 14 Tage traniniert. In der zweiten Trainingswoche werden Blutdruck-Vorwerte erhoben. Tiergruppen, die Substanz erhälten, werden gegen eine Kontrollgruppe geprüft.

weiblichen NMRI-Mäusen = assay: Oral toxicity (LD50) in mice, 14 days observation; type: in vivo; details: N=5/dose
Description: as §1

[3] = day 1 (2h, 6h and 24h Th.W. averaged), normalised to Th.W. Fusarsäure = 1
[4] = day 3 (6h and 24h Th.W. averaged), normalised to Th.W. Fusarsäure = 1
[5] = day 4 (2h and 6h Th.W. averaged), normalised to Th.W. Fusarsäure = 1

SMILES: CCN(CC)CCCNC(=O)c1ccc(-c2ccc(Cl)cc2)cn1 [Beispiel 9]
- LD50 at 336 h [1]: > 1000 mg/kg

SMILES: COc1ccccc1N1CCN(CCCNC(=O)c2ccc(-c3ccccc3)cn2)CC1 [lfd. Nr. 5, 5-Phenylpyridin-2-carbonsäure-(3-[4-(2-methoxyphenyl)-piperazinyl-1]-propyl)-amid]
- BP (%-Änderungen) ([2]; 6,4 mg/kg p.o., day 1, 2h): -19%
- BP (%-Änderungen) ([2]; 6,4 mg/kg p.o., day 1, 6h): -14%
- BP (%-Änderungen) ([2]; 6,4 mg/kg p.o., day 1, 24h): -20%
- BP (%-Änderungen) ([2]; 6,4 mg/kg p.o., day 2, 6h): -12%
- BP (%-Änderungen) ([2]; 6,4 mg/kg p.o., day 3, 6h): -11%
- BP (%-Änderungen) ([2]; 6,4 mg/kg p.o., day 3, 24h): -5%
- BP (%-Änderungen) ([2]; 6,4 mg/kg p.o., day 4, 2h): -16%
- BP (%-Änderungen) ([2]; 6,4 mg/kg p.o., day 4, 6h): -24%
- BP (%-Änderungen) ([2]; 25,6 mg/kg p.o., day 1, 2h): -26%
- BP (%-Änderungen) ([2]; 25,6 mg/kg p.o., day 1, 6h): -20%
- BP (%-Änderungen) ([2]; 25,6 mg/kg p.o., day 1, 24h): -14%
- BP (%-Änderungen) ([2]; 25,6 mg/kg p.o., day 2, 6h): -12%
- BP (%-Änderungen) ([2]; 25,6 mg/kg p.o., day 3, 6h): -12%
- BP (%-Änderungen) ([2]; 25,6 mg/kg p.o., day 3, 24h): -3%
- BP (%-Änderungen) ([2]; 25,6 mg/kg p.o., day 4, 2h): -12%
- BP (%-Änderungen) ([2]; 25,6 mg/kg p.o., day 4, 6h): -22%
- Th.I. Fusarsäure = 1 [2, 3]: 70,6
- Th.W. (Therapeutische Wirksamkeit) ([2]; day 1, 2h): -89,8 %-Änderung BP / µmol/kg x 100
- Th.W. (Therapeutische Wirksamkeit) ([2]; day 1, 6h): -66,9 %-Änderung BP / µmol/kg x 100
- Th.W. (Therapeutische Wirksamkeit) ([2]; day 1, 24h): -82,7 %-Änderung BP / µmol/kg x 100
- Th.W. (Therapeutische Wirksamkeit) ([2]; day 2, 6h): -52,8 %-Änderung BP / µmol/kg x 100
- Th.I. Fusarsäure = 1 [2, 4]: 21,1
- Th.W. (Therapeutische Wirksamkeit) ([2]; day 3, 6h): -49,3 %-Änderung BP / µmol/kg x 100
- Th.W. (Therapeutische Wirksamkeit) ([2]; day 3, 24h): -20,3 %-Änderung BP / µmol/kg x 100
- Th.I. Fusarsäure = 1 [2, 5]: 14,7
- Th.W. (Therapeutische Wirksamkeit) ([2]; day 4, 2h): -66,9 %-Änderung BP / µmol/kg x 100
- Th.W. (Therapeutische Wirksamkeit) ([2]; day 4, 6h): -103,9 %-Änderung BP / µmol/kg x 100
- LD50 p.o. (weiblichen NMRI-Mäusen): ≫ 1000 mg/kg

SMILES: CCN(CC)CCCOC(=O)c1ccc(-c2ccccc2)cn1 [lfd. Nr. 4, 5-Phenylpyridin-2-carbonsäure-(3-diethylaminopropyl)-ester]
- BP (%-Änderungen) ([2]; 10,0 mg/kg p.o., day 1, 2h): -4%
- BP (%-Änderungen) ([2]; 10,0 mg/kg p.o., day 1, 6h): -10%
- BP (%-Änderungen) ([2]; 10,0 mg/kg p.o., day 1, 24h): -6%
- BP (%-Änderungen) ([2]; 10,0 mg/kg p.o., day 2, 6h): -10%
- BP (%-Änderungen) ([2]; 10,0 mg/kg p.o., day 3, 6h): -13%
- BP (%-Änderungen) ([2]; 10,0 mg/kg p.o., day 3, 24h): -12%
- BP (%-Änderungen) ([2]; 10,0 mg/kg p.o., day 4, 2h): -13%
- BP (%-Änderungen) ([2]; 10,0 mg/kg p.o., day 4, 6h): -12%
- BP (%-Änderungen) ([2]; 20,0 mg/kg p.o., day 1, 2h): -3%
- BP (%-Änderungen) ([2]; 20,0 mg/kg p.o., day 1, 6h): -2%
- BP (%-Änderungen) ([2]; 20,0 mg/kg p.o., day 1, 24h): -6%
- BP (%-Änderungen) ([2]; 20,0 mg/kg p.o., day 2, 6h): -8%
- BP (%-Änderungen) ([2]; 20,0 mg/kg p.o., day 3, 6h): -14%
- BP (%-Änderungen) ([2]; 20,0 mg/kg p.o., day 3, 24h): -5%
- BP (%-Änderungen) ([2]; 20,0 mg/kg p.o., day 4, 2h): -6%
- BP (%-Änderungen) ([2]; 20,0 mg/kg p.o., day 4, 6h): -9%
- Th.I. Fusarsäure = 1 ([2]; day 1 (2h, 6h and 24h Th.W. averaged), normalised to Th.W. Fusarsäure = 1, listed as 5): 16,2
- Th.W. (Therapeutische Wirksamkeit) ([2]; day 1, 2h): -11,8 %-Änderung BP / µmol/kg x 100
- Th.W. (Therapeutische Wirksamkeit) ([2]; day 1, 6h): -23,7 %-Änderung BP / µmol/kg x 100
- Th.W. (Therapeutische Wirksamkeit) ([2]; day 1, 24h): -19,4 %-Änderung BP / µmol/kg x 100
- Th.W. (Therapeutische Wirksamkeit) ([2]; day 2, 6h): -30,2 %-Änderung BP / µmol/kg x 100
- Th.I. Fusarsäure = 1 ([2]; day 2, normalised to Th.W. Fusarsäure = 1, listed as 5): 23,2
- Th.I. Fusarsäure = 1 ([2]; day 3 (6h and 24h Th.W. averaged), normalised to Th.W. Fusarsäure = 1, listed as 5): 22,5
- Th.W. (Therapeutische Wirksamkeit) ([2]; day 3, 6h): -43,1 %-Änderung BP / µmol/kg x 100
- Th.W. (Therapeutische Wirksamkeit) ([2]; day 3, 24h): -31,2 %-Änderung BP / µmol/kg x 100
- Th.I. Fusarsäure = 1 ([2]; day 4 (2h and 6h Th.W. averaged), normalised to Th.W. Fusarsäure = 1, listed as 5): 6,0
- Th.W. (Therapeutische Wirksamkeit) ([2]; day 4, 2h): -34,5 %-Änderung BP / µmol/kg x 100
- Th.W. (Therapeutische Wirksamkeit) ([2]; day 4, 6h): -35,5 %-Änderung BP / µmol/kg x 100

SMILES: CCN(CC)CCCOC(=O)c1ccc(-c2ccccc2)cn1 [Beispiel 4]
- Th.I. Fusarsäure = 1 [2, 3]: 10,9
- Th.I. Fusarsäure = 1 ([2]; day 2, normalised to Th.W. Fusarsäure = 1): 7,2
- Th.I. Fusarsäure = 1 [2, 4]: 6,5
- Th.I. Fusarsäure = 1 [2, 5]: 3,3
